The record followed here is patent US11136409B2, “Compositions and methods for identification, assessment, prevention, and treatment of AML using USP10 biomarkers and modulators” (Dana-Farber Cancer Institute, Inc., priority 2016, dated 2021).

Assay [1] deals with USP7 (Homo sapiens, UniProt Q93009). As to the kind of experiment: USP7 IC50 of HBX19818 analogs (Table 9). It is filed as biochemical. Particulars: read-out: USP7 IC50 +/− SEM.
Assay [2] has as its target T1, human USP10 (residues 376-798) (Homo sapiens, UniProt Q14694).
T1 construct: A construct of human USP10 covering residues 376-798 in the pET28a vector; His-tag (cleaved yes); made in house; host or cells: E. coli BL21 (DE3)
As to the kind of experiment: In vitro USP10 activity assay (Ubiquitin-AMC). The format is biochemical. Conditions: ubiquitin-AMC as substrate; purified enzyme; read-out: USP10 biochemical IC50. How it is done:
Protein expression and purification. A construct of human USP10 covering residues 376-798 in the pET28a vector was over-expressed in E. coli BL21 (DE3) in TB medium in the presence of […] of kanamycin. Cells were grown at 37° C. to an OD of 0.8, cooled to 17° C., induced with 500 μM isopropyl-1-thio-D-galactopyranoside, incubated overnight at 17° C., collected by centrifugation, and stored at −80° C. Cell pellets were sonicated in buffer A (50 mM HEPES (pH 7.5), 300 mM NaCl, 10% glycerol, 10 mM Imidazole, and 3 mM BME) and the resulting lysate was centrifuged at 30,000×g for 30 min. Ni-NTA beads (Qiagen) were mixed with lysate supernatant for 30 min and washed with buffer A. Beads were transferred to an FPLC-compatible column and the bound protein was washed with 15% buffer B (50 mM HEPES (pH 7.5), 300 mM NaCl, 10% glycerol, 300 mM Imidazole, and 3 mM BME) and eluted with 100% buffer B. Thrombin was added to the eluted protein and incubated at 4° C. overnight. The sample was then passed through a HiPrep 26/10 desalting column (GE Healthcare) pre-equilibrated with buffer A without imidazole, and the eluted protein was subjected to a second Ni-NTA step to remove His-tag and Thrombin. The eluent was concentrated and passed through a Superdex® 200 10/300GL column (GE Healthcare) in a buffer containing 20 mM HEPES (pH 7.5), 150 mM NaCl, and 1 mM DTT. Fractions were pooled, concentrated to 20 mg/ml, and frozen at −80° C.
In vitro USP10 activity assay. Recombinant USP10, residues 376-798, was tested for its activity in a Ubiquitin-AMC assay in presence or absence of inhibitors. For this assay, 10 nM USP10 were pre-incubated with different concentrations of inhibitors or DMSO as a control in 50 mM HEPES pH7.6, 0.5 mM EDTA, 11 uM ovalbumin, and 5 mM DTT. The reaction was incubated for 6 hours at room temperature prior to the addition of 2 uM Ubiquitin-AMC (Boston Biochem) substrate. The initial rate of the reaction was measured by collecting fluorescence data at one minute intervals over 30-minute period using a CLARIOstar® fluorescence plate reader at excitation and emission wavelength of 345 and 445 nm, respectively. The calculated initial rate values were plotted against inhibitor concentrations to determine IC50 values.

The subject of assay [3] is Ba/F3-FLT3-ITD cells. As to the kind of experiment: Immunoblot of FLT3 / Beclin-1 in Ba/F3-FLT3-ITD cells. It is filed as cell-based, murine. Conditions: immunoblot; Ba/F3-FLT3-ITD cells. The source says: The following antibodies were purchased from Cell Signaling Technology (Danvers, Mass.): total AKT (rabbit, #9272) and total p44/42 MAPK (Erk1/2) (3A7) (mouse, #9107) were used at 1:1000 dilution. Anti-GAPDH (D16H-11) XP (R) (rabbit mAb, #5174) was used at 1:1000 dilution. Beclin-1 (rabbit, #3738) was used at 1:1000. USP10 (D7A5) (rabbit, #8501) was used at 1:1000 dilution. P53 (rabbit, #9282) was used at 1:1000 dilution. β-tubulin (rabbit, #2146s) was used 1:1000.
FLT3/Flk-2 (C-20) (sc-479) and Ub (P4D1) (mouse, sc-8017) were purchased from Santa Cruz Biotechnology, Inc. (Dallas, Tex.) and used at 1:1000 dilution for immunoblotting. Anti-pTyr (mouse, clone 4G10) was purchased from Upstate Biotechnology (Lake Placid, N.Y.) and was used at 1:1000 dilution. Anti-HAUSP/USP7 antibody (rabbit, ab4080) and anti-ubiquitin antibody (rabbit, ab7780) were purchased from Abcam (Cambridge, Mass.) and used at 1:1000 dilution.
Protein lysate preparation, immunoblotting, and immunoprecipitation were carried out as previously described in Weisberg et al. (2002) Cancer Cell 1:433-443.
(A western blot detects proteins with antibodies after separation by electrophoresis.)

Molecules are shown by their SMILES. pIC50: −log10 of the molar value.

Chain of USP7 (Q93009 whole entry, the tested form may be a part): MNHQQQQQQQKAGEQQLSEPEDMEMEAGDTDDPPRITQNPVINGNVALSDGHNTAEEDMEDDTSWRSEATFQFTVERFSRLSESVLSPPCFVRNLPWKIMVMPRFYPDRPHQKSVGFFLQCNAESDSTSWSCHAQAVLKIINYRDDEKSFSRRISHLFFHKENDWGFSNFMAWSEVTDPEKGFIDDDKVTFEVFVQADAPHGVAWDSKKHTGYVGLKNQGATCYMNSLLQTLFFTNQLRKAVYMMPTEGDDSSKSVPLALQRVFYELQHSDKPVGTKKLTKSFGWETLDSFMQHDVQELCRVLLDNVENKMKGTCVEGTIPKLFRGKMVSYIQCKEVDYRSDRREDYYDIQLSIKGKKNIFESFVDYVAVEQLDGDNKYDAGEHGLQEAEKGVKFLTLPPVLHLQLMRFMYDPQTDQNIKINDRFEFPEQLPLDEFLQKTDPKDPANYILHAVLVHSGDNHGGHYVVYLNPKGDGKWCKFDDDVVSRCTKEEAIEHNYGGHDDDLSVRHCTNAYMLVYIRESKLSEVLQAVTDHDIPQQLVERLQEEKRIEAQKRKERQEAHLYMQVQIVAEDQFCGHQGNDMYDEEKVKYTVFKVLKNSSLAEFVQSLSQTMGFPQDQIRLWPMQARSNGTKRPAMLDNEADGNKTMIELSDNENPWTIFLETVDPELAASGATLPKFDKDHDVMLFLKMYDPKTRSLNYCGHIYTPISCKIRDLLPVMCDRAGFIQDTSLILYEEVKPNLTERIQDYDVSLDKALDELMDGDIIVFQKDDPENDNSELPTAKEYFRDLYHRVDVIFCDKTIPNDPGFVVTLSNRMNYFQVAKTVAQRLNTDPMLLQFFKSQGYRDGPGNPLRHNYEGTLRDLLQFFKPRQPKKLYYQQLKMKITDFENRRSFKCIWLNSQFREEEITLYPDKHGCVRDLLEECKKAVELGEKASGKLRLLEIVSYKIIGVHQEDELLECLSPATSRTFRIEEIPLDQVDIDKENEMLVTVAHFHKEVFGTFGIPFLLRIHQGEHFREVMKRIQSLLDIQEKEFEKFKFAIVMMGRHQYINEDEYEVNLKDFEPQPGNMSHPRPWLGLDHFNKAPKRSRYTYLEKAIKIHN
T1 sequence (Q14694 376-798): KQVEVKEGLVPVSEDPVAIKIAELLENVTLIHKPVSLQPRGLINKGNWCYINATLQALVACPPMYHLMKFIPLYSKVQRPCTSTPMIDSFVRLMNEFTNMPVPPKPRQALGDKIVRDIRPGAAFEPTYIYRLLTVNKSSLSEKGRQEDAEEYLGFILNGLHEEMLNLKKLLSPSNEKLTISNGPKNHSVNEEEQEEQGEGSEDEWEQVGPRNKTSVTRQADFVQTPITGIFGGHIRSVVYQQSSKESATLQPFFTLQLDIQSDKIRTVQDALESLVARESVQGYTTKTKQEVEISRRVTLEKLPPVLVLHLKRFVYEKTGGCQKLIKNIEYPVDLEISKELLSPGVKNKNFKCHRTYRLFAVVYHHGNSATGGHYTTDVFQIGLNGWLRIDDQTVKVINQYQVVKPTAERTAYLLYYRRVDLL

For the molecule `CCN(CC)S(=O)(=O)c1ccc(NC(=O)c2ccc3nc4c(c(Cl)c3c2)CCCC4)cc1` [C598-0646], in assay [1], the pIC50 was less than 4.00.

Consider `CCN(CCCNC(=O)c1ccc2nc3c(c(Cl)c2c1)CCCC3)c1ccccc1` [C598-0468], for which the pIC50 in assay [2] and in assay [1] was less than 4.00 throughout. Moreover, the FLT3 protein levels result in assay [3] is on record as “no effect on FLT3 levels”.

Consider `O=C(NCCc1ccc(Cl)cc1)c1ccc2nc3c(c(Cl)c2c1)CCCC3` [C598-0515], for which the pIC50 in assay [1] was less than 4.00.
